Structures are written as SMILES. Where two headings read alike, the source gives them in different places. Bounds are passed on as bounds.

In one assay the test system is HCV replicon cells. Put plainly: HCV replicon FRET assay. The conditions noted are these: Hepatitis C virus. In kind it is cell-based. An excerpt: FRET Assay Preparation. To perform the HCV FRET screening assay, 96-well cell culture plates were used. The FRET peptide (Anaspec, Inc.) (Taliani et al., Anal. Biochem. 1996, 240, 60-67) contains a fluorescence donor, EDANS, near one end of the peptide and an acceptor, DABCYL, near the other end. The fluorescence of the peptide is quenched by […] resonance energy transfer (RET) between the donor and the acceptor, but as the NS3 protease cleaves the peptide the products are released from RET quenching and the fluorescence of the donor becomes apparent. The assay reagent was made as follows: 5× cell Luciferase cell culture lysis reagent from Promega (#E153A) diluted to 1× with dH2O, NaCl added to 150 mM final, the FRET peptide diluted to 20 μM final from a 2 mM stock.
To prepare plates, HCV replicon cells, with or without a Renilla luciferase reporter gene, were trypsinized and placed into each well of a 96-well plate with titrated test compounds added in columns 3 through 12; columns 1 and 2 contained a control compound (HCV protease inhibitor), and the bottom row contained cells without compound. The plates were then placed in a CO2 incubator at 37° C.
Assays. Subsequent to addition of the test compounds described above (FRET Assay Preparation), at various times the plate was removed and Alamar blue solution (Trek Diagnostics, #00-100) was added per well as a measure of cellular toxicity. After reading in a Cytoflour 4000 instrument (PE Biosystems), plates were rinsed with PBS and then used for FRET assay by the addition of 30 ul of the FRET peptide assay reagent described above (FRET Assay Preparation) per well. The plate was then placed into the Cytoflour 4000 instrument which had been set to 340 excite/490 emission, automatic mode for 20 cycles and the plate read in a kinetic mode. Typically, the signal to noise using an endpoint analysis after the reads was at least three-fold. Alternatively, after Alamar blue reading, plates were rinsed with PBS, 50 ul of DMEM (high glucose) without phenol red was added and plates were then used for luciferase assay using the Promega Dual-Glo Luciferase Assay System.
Compound analysis was determined by quantification of the relative HCV replicon inhibition and the relative cytotoxicity values. To calculate cytoxicity values, the average Alamar Blue fluorescence signals from the control wells were set as 100% non-toxic. The individual signals in each of the compound test wells were then divided by the average control signal and multiplied by 100% to determine […]. To calculate the HCV replicon inhibition values, an average background value was obtained from the two wells containing the highest amount of HCV protease inhibitor at the end of the assay period. These numbers were similar to those obtained from naïve Huh-7 cells.
The background numbers were then subtracted from the average signal obtained from the control wells and this number was used as 100% activity. The individual signals in each of the compound test wells were then divided by the averaged control values after background subtraction and multiplied by 100% to determine percent activity. EC50 values for a protease inhibitor titration were calculated as the concentration which caused a 50% reduction in FRET or luciferase activity. The two numbers generated for the compound plate, percent cytoxicity and percent activity were used to determine compounds of interest for further analysis.

Another assay addresses T1, HCV NS5B (Hepatitis C virus genotype 1b, UniProt Q9WMX2).
T1 construct: The cDNA encoding the NS5B protein of HCV, genotype 1b; made in house; host or cells: E. coli BL21(DE3)
Put plainly: Modified HCV NS5B RdRp enzyme assay (preincubation protocol). It is filed as biochemical. The method, then:
HCV NS5B RdRp cloning, expression, and purification. The cDNA encoding the NS5B protein of HCV, genotype 1b, was cloned into the pET21a expression vector. The protein was expressed with an 18 amino acid C-terminal truncation to enhance the solubility. The E. coli competent cell line BL21(DE3) was used for expression of the protein. Cultures were grown at 37° C. for ˜4 hours until the cultures reached an optical density of 2.0 at 600 nm. The cultures were cooled to 20° C. and induced with 1 mM IPTG. Fresh ampicillin was added to a final concentration of 50 μg/ml and the cells were grown overnight at 20° C.
Cell pellets (3 L) were lysed for purification to yield 15-24 mgs of purified NS5B. The lysis buffer consisted of 20 mM Tris-HCl, pH 7.4, 500 mM NaCl, 0.5% triton X-100, 1 mM DTT, 1 mM EDTA, 20% glycerol, 0.5 mg/ml lysozyme, 10 mM MgCl2, 15 ug/ml deoxyribonuclease I, and Complete™ protease inhibitor tablets (Roche). After addition of the lysis buffer, frozen cell pellets were resuspended using a tissue homogenizer. To reduce the viscosity of the sample, aliquots of the lysate were sonicated on ice using a microtip attached to a Branson sonicator. The sonicated lysate was centrifuged at 100,000×g for 1 hr at 4° C. and filtered through a 0.2 μm filter unit (Corning).
The protein was purified using three sequential chromatography steps: Heparin sepharose CL-6B, polyU sepharose 4B, and Hitrap SP sepharose (Pharmacia). The chromatography buffers were identical to the lysis buffer but contained no lysozyme, deoxyribonuclease I, MgCl2 or protease inhibitor and the NaCl concentration of the buffer was adjusted according to the requirements for charging the protein onto the column. Each column was eluted with a NaCl gradient which varied in length from 5-50 column volumes depending on the column type. After the final chromatography step, the resulting purity of the enzyme is >90% based on SDS-PAGE analysis. The enzyme was aliquoted and stored at −80° C.
Standard HCV NS5B RdRp enzyme assay. HCV RdRp genotype 1b assays were run in a final volume of 60 μl in 96 well plates (Costar 3912). The assay buffer is composed of 20 mM Hepes, pH 7.5, 2.5 mM KCl, 2.5 mM MgCl2, 1 mM DTT, 1.6 U RNAse inhibitor (Promega N2515), 0.1 mg/ml BSA (Promega R3961), and 2% glycerol. All compounds were serially diluted (3-fold) in DMSO and diluted further in water such that the final concentration of DMSO in the assay was 2%. HCV RdRp genotype 1b enzyme was used at a final concentration of 28 nM. A polyA template was used at 6 nM, and a biotinylated oligo-dT12 primer was used at 180 nM final concentration. Template was obtained commercially (Amersham 27-4110). Biotinylated primer was prepared by Sigma Genosys. 3H-UTP was used at 0.6 μCi (0.29 μM total UTP). Reactions were initiated by the addition of enzyme, incubated at 30° C. for 60 min, and stopped by adding 25 μl of 50 mM EDTA containing SPA beads (4 μg/μl, Amersham RPNQ 0007). Plates were read on a Packard Top Count NXT after >1 hr incubation at room temperature.
Modified HCV NS5B RdRp enzyme assay. A modified enzyme assay was performed essentially as described for the standard enzyme assay except for the following: The biotinylated oligo dT12 primer was precaptured on streptavidin-coated SPA beads by mixing primer and beads in assay buffer and incubating at room temperature for one hour. Unbound primer was removed after centrifugation. The primer-bound beads were resuspended in 20 mM Hepes buffer, pH 7.5 and used in the assay at final concentrations of 20 nM primer and 0.67 μg/μl beads. Order of addition in the assay: enzyme (14 nM) was added to diluted compound followed by the addition of a mixture of template (0.2 nM), 3H-UTP (0.6 μCi, 0.29 μM), and primer-bound beads, to initiate the reaction; concentrations given are final. Reactions were allowed to proceed for 4 hours at 30° C.
IC50 values for compounds were determined using seven different [I]. […]

Setting [1] is: preincubation protocol, read-out: IC50.

T1 sequence (Q9WMX2 2420-2992): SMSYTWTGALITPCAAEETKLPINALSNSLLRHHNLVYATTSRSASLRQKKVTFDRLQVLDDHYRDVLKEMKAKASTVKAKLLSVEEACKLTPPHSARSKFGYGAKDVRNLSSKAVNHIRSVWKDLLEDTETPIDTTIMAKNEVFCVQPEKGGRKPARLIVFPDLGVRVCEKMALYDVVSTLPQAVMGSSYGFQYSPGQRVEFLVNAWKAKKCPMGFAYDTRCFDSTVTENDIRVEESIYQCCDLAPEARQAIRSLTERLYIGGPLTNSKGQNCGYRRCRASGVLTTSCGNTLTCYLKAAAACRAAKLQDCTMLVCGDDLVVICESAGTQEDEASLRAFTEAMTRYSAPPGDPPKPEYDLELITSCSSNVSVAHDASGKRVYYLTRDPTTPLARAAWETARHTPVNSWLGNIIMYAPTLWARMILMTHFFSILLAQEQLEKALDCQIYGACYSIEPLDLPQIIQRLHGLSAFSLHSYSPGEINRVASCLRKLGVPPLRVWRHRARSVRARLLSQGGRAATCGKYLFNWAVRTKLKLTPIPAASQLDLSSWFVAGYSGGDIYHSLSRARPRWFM

For the compound `COc1ccc2c(c1)C=C(c1ncccc1C(=O)N1CCCCC1)Cn1c-2c(C2CCCCC2)c2ccc(C(=O)O)cc21`, the EC50 with HCV replicon cells (FRET assay, read-out: EC50) lay in the range of 0.00458 to 0.5 µM. The IC50 at HCV NS5B (setting [1]) was in the range of 0.00458 to 0.5 µM.
Regarding `COc1ccc2c(c1)C=C(c1cccc3c1OC(F)(F)O3)Cn1c-2c(C2CCCCC2)c2ccc(C(=O)O)cc21`, the EC50 with HCV replicon cells (FRET assay, read-out: EC50) is > 0.5 µM. Besides, the IC50 at HCV NS5B (setting [1]) is 0.00458 to 0.5 µM.
On the same counts, the results for `COc1ccc2c(c1)C=C(c1ccccc1OC(F)F)Cn1c-2c(C2CCCCC2)c2ccc(C(=O)NS(=O)(=O)C(C)C)cc21` are > 0.5 µM and 0.00458 to 0.5 µM.
On the same counts, the results for `COc1ccc2c(c1)C=C(c1ncccc1C(=O)N(C)C)Cn1c-2c(C2CCCCC2)c2ccc(C(=O)O)cc21` are 0.00458 to 0.5 µM and 0.00458 to 0.5 µM.
`COc1ccc2c(c1)C=C(c1ncccc1C(=O)N1CCOCC1)Cn1c-2c(C2CCCCC2)c2ccc(C(=O)NS(=O)(=O)N(C)C)cc21`: in the assay with HCV replicon cells (FRET assay, read-out: EC50), the EC50 lay within 0.00458 to 0.5 µM. Further, the IC50 at HCV NS5B (setting [1]) is 0.00458 to 0.5 µM.
For `COc1ccc2c(c1)C=C(c1ncccc1C(=O)N1CCC(O)CC1)Cn1c-2c(C2CCCCC2)c2ccc(C(=O)NS(=O)(=O)N(C)C)cc21`, the EC50 in the assay on HCV replicon cells (FRET assay, read-out: EC50) was 0.00458 to 0.5 µM. The IC50 on HCV NS5B (setting [1]) is 0.00458 to 0.5 µM.
For `COc1ccc2c(c1)C=C(c1ccccc1C(=O)N1C3CCC1CN(C)C3)Cn1c-2c(C2CCCCC2)c2ccc(C(=O)NS(=O)(=O)C(C)C)cc21`, in the assay on HCV replicon cells, the EC50 was 0.00458 to 0.5 µM. In addition, the IC50 on HCV NS5B is 0.00458 to 0.5 µM.
Regarding `COc1ccc2c(c1)C=C(c1c(F)cccc1C(F)(F)F)Cn1c-2c(C2CCCCC2)c2ccc(C(=O)NS(=O)(=O)C(C)C)cc21`, in the assay with HCV replicon cells (FRET assay, read-out: EC50), the EC50 lay within 0.00458 to 0.5 µM. The half-maximal inhibitory concentration (IC50) at HCV NS5B (setting [1]) was in the range of 0.00458 to 0.5 µM.
On to `COc1ccc2c(c1)C=C(c1cccc(OCCN(C)C)c1)Cn1c-2c(C2CCCCC2)c2ccc(C(=O)NS(=O)(=O)C(C)C)cc21`, for which the EC50 with HCV replicon cells (FRET assay, read-out: EC50) is > 0.5 µM. The IC50 at HCV NS5B (setting [1]) fell in the range of 0.00458 to 0.5 µM.
On to `COc1ccc2c(c1)C=C(c1ncccc1C(=O)N1CCC(O)CC1)Cn1c-2c(C2CCCCC2)c2ccc(C(=O)O)cc21`, for which the EC50 with HCV replicon cells (FRET assay, read-out: EC50) lay within 0.00458 to 0.5 µM. Further, the IC50 at HCV NS5B (setting [1]) was in the range of 0.00458 to 0.5 µM.
Regarding `COc1ccc2c(c1)C=C(c1ccccc1S(=O)(=O)N(C)C)Cn1c-2c(C2CCCCC2)c2ccc(C(=O)NS(=O)(=O)C(C)C)cc21`, the EC50 with HCV replicon cells (FRET assay, read-out: EC50) was > 0.5 µM. The IC50 at HCV NS5B (setting [1]) was 0.00458 to 0.5 µM.
For the compound `COc1ccc2c(c1)C=C(c1ncccc1N1CC(C)(C)C1=O)Cn1c-2c(C2CCCCC2)c2ccc(C(=O)O)cc21`, the EC50 in the assay with HCV replicon cells (FRET assay, read-out: EC50) fell in the range of 0.00458 to 0.5 µM. The IC50 on HCV NS5B (setting [1]) fell in the range of 0.00458 to 0.5 µM.

The values above are taken from patent US7642251B2, “Compounds for the treatment of hepatitis C” (Bristol-Myers Squibb Company, priority 2007, dated 2010).
